This is an account of results in US12702696B2, “Methods and composition for modulating immune response and immune homeostasis” (Massachusetts Institute of Technology, priority 2019, dated 2026).

Ends that are not written are not given here.

The test system of assay [1] is sympathetic (TH+) and sensory (tdTomato+) fibers of LNs. Kind of assay: 6-OHDA-mediated chemical sympathectomy, sensory and sympathetic fiber density in popliteal LNs (whole-mount imaging). In kind it is in vivo, mouse. The note with it: 6-OHDA 100 mg kg-1 intraperitoneally daily for 5 days vs saline; popliteal LNs of Nav1.8Cre/+; Rosa26LSL-tdTomato/+ mice. From the text:
To address the interdependence between these two types of innervation, Applicants assessed the sensitivity of each type of fiber to 6-hydroxydopamine (6-OHDA)-mediated chemical sympathectomy or diphtheria toxin A (DTA)-mediated genetic ablation of Nav1.8 lineage neurons. […] Thus, Applicants unexpectedly discovered that LNs receive not only sympathetic but also sensory innervation, two categorically different types of innervation that are anatomically independent of each other.
Whole mount immunohistochemistry of LNs was performed using an iDISCO protocol with methanol pretreatment optimized for LNs (Renier et al., 2014). Briefly, adult animals (6-12 weeks) were perfused with 25 mL of PBS (Hyclone) and 25 mL of 4% paraformaldehyde (PFA, Sigma) sequentially at room temperature (RT). Peripheral lymph nodes (PLNs), including popliteal and inguinal lymph nodes (popLNs and iLNs), were postfixed with 4% PFA for 1 hr at 4° C. […]
For sympathetic denervation, the stock solution of 6-hydroxydopamine (6-OHDA) (Sigma) was prepared in water at 42 mg/mL and stored at −20° C. […] Animals were analyzed the following day.
For quantification of innervation density of LNs as in FIGS. 1C-1F, relevant channels were first masked with the LN isosurface as described above. […]

The conditions of assay [2]: mice; GAL2 selective agonist; cited from earlier work.

With `NCCc1cc(O)c(O)cc1O` [6-OHDA, 6-hydroxydopamine], in assay [1], the “effect on sensory innervation (tdTomato+ fiber density) of LNs” value was “not compromised” and the “effect on sympathetic innervation (TH+ fiber density) of LNs” value is recorded as “efficient sympathetic denervation of LNs”.

On to “Galanin 2-11 amide: GAL2 selective galanin receptor agonist, CAS #367518-31-8 (WTLNSAGYLL-NH2; UniProt P22466 34-43, looked up, fragment)”, for which the anticonvulsant activity result in assay [2] was “anticonvulsant in mice”.
